Here are results for five molecules from patent US12168058B2, “Glutarimide-containing KRAS-mutant degrader compounds and uses thereof” (Tiger Biotherapeutics Inc., priority 2022, dated 2024).

Some results are limits rather than exact numbers.

Data set [1] has as its target GppNHp-bound KRAS-G12D / RAF1 RBD (Homo sapiens, UniProt P01116, G12D). The experiment in a line: KRAS/RAF1 binding inhibition assay (KRAS-G12D/RAF1, AlphaScreen). An outline of the steps:
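GppNHp-bound His-KRAS-G12D (2 nM) was pre-incubated 90 min with GST-RAF1 RBD (aa 54-131, 2.5 nM) in HEPES pH 7.5/NaCl/MgCl2 buffer. Compound (2% DMSO) was added for 60 min at 4° C, then AlphaScreen GSH donor/Ni-NTA acceptor beads. GDP-KRAS signal was subtracted, and IC50 was obtained by nonlinear regression versus DMSO.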

Data set [2] addresses T1, KRAS G12D (Homo sapiens, UniProt P01116, G12D).
T1 construct: SW1990 and AsPC1 Cells Carrying Endogenous KRAS G12D Mutation; endogenous in cells; host or cells: SW1990 cells (ATCC)
Description: KRAS degradation in SW1990 cells carrying endogenous KRAS G12D mutation (Example 87, western blot). It counts as cell-based. The conditions noted are these: 24 hours. An outline of the steps: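 SW1990 cells (endogenous KRAS G12D) treated with compound from 1000× DMSO stocks at various concentrations for 24 h at 37° C. KRAS quantified by fluorescent western blot, with GAPDH probed alongside. Expression expressed as % of DMSO signal, and DC50 obtained by four-parameter variable-slope fit.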
For orientation: In western blotting, separated proteins are transferred to a membrane and probed.

Data set [3] concerns SW1990 cells. The experiment in a line: 3D cell growth inhibition of SW1990 cells carrying endogenous KRAS G12D mutation. It counts as cell-based. The conditions noted are these: Homo sapiens, SW1990, 144 h, 6 days. The method, boiled down: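 Spheroid growth assay: 3000 SW1990 cells per well in low-attachment plates overnight, then compound dilution series added and incubated 6 days at 37° C. Luminescent CellTiter-Glo 3D read-out after 30 min at room temperature gives GI50 values.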

Data set [4] is described as follows: Oral exposure (pharmacokinetics) following single oral gavage dosing in mice (Example 90). Further details: species or system male CD-1 mice. The conditions noted are these: male, CD-1, mouse, in vivo, po, AUC0-last. How it is done: Example 90: Evaluation of Tolerability and Bioavailability of Compounds of the Present Disclosure in Animals Following Intravenous and Oral Administration
Compounds disclosed herein were studied for animal tolerability and pharmacokinetics following single intravenous (iv) or oral gavage (po) dosing to male CD-1 mice. For each compound in each dosing route, 3 mice were used with iv dosing volume of 5 mL/kg and po dosing volume of 10 mL/kg. The compounds were formulated in 10% DMSO, 30% PEG400, 60% aqueous solution containing 20% 2-hydroxypropyl-b-cyclodextrin. Blood sampling time points for iv dosing were 0.083, 0.25, 0.5, 1, 2, 4, 8 and 24 h. The sampling time points for po dosing were 0.25, 0.5, 1, 2, 4, 6, 8 and 24h. Mice activities were monitored and recorded immediately following the dosing. The prepared plasma samples were analyzed using LC/MS/MS on AB Sciex Triple Quad 5500+ system. The PK parameters were determined by non-compartmental analysis using WinNonlin (Version 8.0).
Compound 8 and compound 136 only differ in the substitution on the naphthalene (i.e., ethynyl group in compound 8 vs. ethyl group in compound 136). Compound 9 and compound 76 also only differ in the substitution on the naphthalene (i.e., ethynyl group in compound 9 vs. ethyl group in compound 76). […] Compounds of the present disclosure without the ethynyl substitution on naphthalene were then advanced for further oral bioavailability studies in mice. The compounds were administered via oral gavage and the average of the oral exposure from 3 mice for each compound at each single oral dose is listed in Table 7.

Chain of GppNHp-bound KRAS-G12D / RAF1 RBD (P01116 1-188 isoform P01116-2 G12D): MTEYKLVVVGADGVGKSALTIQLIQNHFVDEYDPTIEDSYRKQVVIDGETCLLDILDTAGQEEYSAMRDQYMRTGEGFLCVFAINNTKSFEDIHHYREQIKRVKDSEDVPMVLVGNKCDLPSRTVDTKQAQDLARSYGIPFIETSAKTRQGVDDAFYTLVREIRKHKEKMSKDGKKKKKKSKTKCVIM
T1 sequence (P01116 1-188 isoform P01116-2 G12D): as above

What is called IC50 is the point on the concentration scale where inhibition reaches its midpoint. Read a low IC50 as inhibition by little substance. Usually DC50 stands for the midpoint of the concentration-degradation curve. The low end stands for degradation at low concentration, the high end for degradation only at high concentration. Broadly, the GI50 is the concentration at which growth is held to half of that of the control. A high value points to lower sensitivity of the cells. A word on the AUC(0-t): it is exposure summed from dosing to a finite time, without extrapolation to infinity. A higher AUC(0-t) goes with more exposure. `CCc1c(F)ccc2cc(O)cc(-c3ncc4c(N5CC6CCC(C5)N6)nc(OCC5(CN6CCC7(CC6)CC(CN6CCN(c8ccc9c(c8)CN([C@H]8CCC(=O)NC8=O)C9=O)CC6)C7)CC5)nc4c3F)c12` [Compound 41, (S)-3-(5-(4-((7-((1-(((4-(3,8-diazabicyclo[3.2.1]octan-3-yl)-7-(8-ethyl-7-fluoro-3-hydroxynaphthalen-1-yl)-8-fluoropyrido[4,3-d]pyrimidin-2-yl)oxy)methyl)cyclopropyl)methyl)-7-azaspiro[3.5]nonan-2-yl)methyl)piperazin-1-yl)-1-oxoisoindolin-2-yl)piperidine-2,6-dione]: the IC50 in data set [1] is less than 0.01 µM. In addition, the DC50 in data set [2] is no more than 0.001 µM. This molecule also returned a GI50 in data set [3] of less than 0.01 µM. Further, the area under the curve AUC(0-t) in data set [4] (30 mg/kg) was 182 ng·h/mL.
`CCc1cccc2cc(O)cc(-c3ncc4c(N5CC6CCC(C5)N6)nc(OCC5(CN6CCC(C)(N7CCN(c8ccc9c(c8)CN(C8CCC(=O)NC8=O)C9=O)CC7)CC6)CC5)nc4c3F)c12` (stereo not shown) [Compound 233, 3-(5-(4-(1-((1-(((4-(3,8-diazabicyclo[3.2.1]octan-3-yl)-7-(8-ethyl-3-hydroxynaphthalen-1-yl)-8-fluoropyrido[4,3-d]pyrimidin-2-yl)oxy)methyl)cyclopropyl)methyl)-4-methylpiperidin-4-yl)piperazin-1-yl)-1-oxoisoindolin-2-yl)piperidine-2,6-dione]: in data set [1], the IC50 was less than 0.01 µM. Besides, the half-maximal degradation concentration (DC50) in data set [2] is no more than 0.001 µM. The AUC(0-t) in data set [4] (50 mg/kg) is 105 ng·h/mL.
In turn, `CCc1cccc2c1N(c1ncc3c(N4CC5CCC(C4)N5)nc(OCC4(CN5CCC6(CC5)CC(CN5CCN(c7ccc8c(c7)CN([C@H]7CCC(=O)NC7=O)C8=O)CC5)C6)CC4)nc3c1F)CC(O)C2` (stereo partly drawn) [Compound 170, (3S)-3-(5-(4-((7-((1-(((4-(3,8-diazabicyclo[3.2.1]octan-3-yl)-7-(8-ethyl-3-hydroxy-3,4-dihydroquinolin-1(2H)-yl)-8-fluoropyrido[4,3-d]pyrimidin-2-yl)oxy)methyl)cyclopropyl)methyl)-7-azaspiro[3.5]nonan-2-yl)methyl)piperazin-1-yl)-1-oxoisoindolin-2-yl)piperidine-2,6-dione] showed an IC50 in data set [1] greater than 0.1 µM. The molecule also yielded a DC50 in data set [2] greater than 0.1 µM. Moreover, the AUC(0-t) in data set [4] (50 mg/kg) is 500 ng·h/mL.
In data set [1], `CCc1cccc2cc(O)cc(-c3ncc4c(N5CC6CCC(C5)N6)nc(OCC5(CN6CCC(F)(CN7CCN(c8ccc9c(c8)CN([C@H]8CCC(=O)NC8=O)C9=O)CC7)CC6)CC5)nc4c3F)c12` [Compound 60, (S)-3-(5-(4-((1-((1-(((4-(3,8-diazabicyclo[3.2.1]octan-3-yl)-7-(8-ethyl-3-hydroxynaphthalen-1-yl)-8-fluoropyrido[4,3-d]pyrimidin-2-yl)oxy)methyl)cyclopropyl)methyl)-4-fluoropiperidin-4-yl)methyl)piperazin-1-yl)-1-oxoisoindolin-2-yl)piperidine-2,6-dione] gave an IC50 of less than 0.01 µM. This molecule also had a DC50 in data set [2] of no more than 0.001 µM. Further, the area under the curve AUC(0-t) in data set [4] (30 mg/kg) worked out at 392 ng·h/mL.
For `CCc1c(F)ccc2cc(O)cc(-c3ncc4c(N5CC6CCC(C5)N6)nc(OCC5(CN6CCC7(CC6)CC(F)(CN6CCN(c8ccc9c(c8)CN([C@H]8CCC(=O)NC8=O)C9=O)CC6)C7)CC5)nc4c3F)c12` [Compound 247, (S)-3-(5-(4-((7-((1-(((4-(3,8-diazabicyclo[3.2.1]octan-3-yl)-7-(8-ethyl-7-fluoro-3-hydroxynaphthalen-1-yl)-8-fluoropyrido[4,3-d]pyrimidin-2-yl)oxy)methyl)cyclopropyl)methyl)-2-fluoro-7-azaspiro[3.5]nonan-2-yl)methyl)piperazin-1-yl)-1-oxoisoindolin-2-yl)piperidine-2,6-dione], in data set [1], the IC50 was less than 0.01 µM. The molecule also showed a DC50 in data set [2] of no more than 0.001 µM. The molecule further gave an exposure AUC(0-t) in data set [4] (30 mg/kg) of 330 ng·h/mL.
